Data: US6984727B1, “Gene involved in brassinosteroid responses” (National Institute of Agrobiological Science, priority 2000, dated 2006)

System: second leaf of rice
Test: leaf blade bend response test (brassinosteroid response test)
Assay type: in vivo
Details: cut second leaf germinated in the dark, immersed in 1 ng/ml solution for 48 hours
Source text: The present gene was deduced to be a factor involved in the signal transduction system for plant hormones, taking note of the facts that the present gene was expressed in all plant bodies and that pleiotropic influences resulted from destroying this gene, as well as the possibility that the gene might be a factor involved in the signal transduction system. Presuming that the signal transduction system is that for brassinosteroid hormone in view of the resultant upright form, the inventors performed a leaf blade bend response test as a brassinosteroid response test, by using brassinolide, which is one kind of brassinosteroid hormone. The second leaf of rice which was allowed to germinate in the dark was cut off, and immersed in a 1 ng/ml of brassinosteroid solution for 48 hours.

SMILES: CC(C)[C@H](C)[C@@H](O)[C@H](O)[C@@H](C)[C@H]1CC[C@H]2[C@@H]3COC(=O)[C@H]4C[C@H](O)[C@H](O)C[C@]4(C)[C@H]3CC[C@]12C [brassinolide]
- bending of the leaf blades and leaf sheath junctions (Tos17-insertion mutant individuals (A0369, NC6148)): showed little bending thereof
- bending of the leaf blades and leaf sheath junctions (wild type individuals (Akitakomachi, Nipponbare)): showed bending of the leaf blades and leaf sheath junctions
